Consider three compounds from article PMC7377239, “Cardiovascular Effects of Polychlorinated Biphenyls and Their Major Metabolites” (Environmental Health Perspectives, 2020).

Structures are written as SMILES. Read-outs that look alike come from different tables or passages of the source.

This assay concerns iCell cardiomyocytes (human iPSC-derived cardiomyocytes). Nature of the assay: High-content imaging of cytotoxicity and mitochondrial integrity in iPSC-CMs. To be noted: Homo sapiens, Cardiomyocyte; for viability at 0.01 µM / activity at 0.01 µM / viability at 0.1 µM / activity at 0.1 µM / viability at 1 µM / activity at 1 µM / viability at 10 µM / activity at 10 µM / viability at 100 µM / activity at 100 µM: 0.00 µM = 100.00; for viability at 0.1 µM / activity at 0.1 µM: 0.10 µM. It counts as cell-based. In a few lines: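 Readouts from high-content images were normalized to vehicle controls containing 0.5% vol/vol DMSO. They were fit to a four-parameter logistic model in R. Points of departure were set using a cutoff of one standard deviation across vehicle control means. Where no concentration–response was seen, the top tested concentration of 100μM was assigned as the no observable adverse effect level.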

The mark [1] stands for this setting: 1.5 h, 90min, read-out: cm.cam.90min.
Where [2] appears, read: 1.5 h, 90min, read-out: cm.mii.90min.
The mark [3] stands for this setting: 1.5 h, 90min, read-out: cm.mito.90min.
The mark [4] stands for this setting: 1.5 h, 90min, read-out: cm.tc.90min.
Setting [5] is: 24 h, 24hrs, read-out: cm.cam.24hrs.
[6] abbreviates: 24 h, 24hrs, read-out: cm.mii.24hrs.
Setting [7] is: 24 h, 24hrs, read-out: cm.mito.24hrs.
The mark [8] stands for this setting: 24 h, 24hrs, read-out: cm.tc.24hrs.
[9] abbreviates: 1.5 h, cardiomyocytes (cm), cam, 90 min, read-out: POD cm.cam.90min.
The mark [10] stands for this setting: 1.5 h, cardiomyocytes (cm), mii, 90 min, read-out: POD cm.mii.90min.
Where [11] appears, read: 1.5 h, cardiomyocytes (cm), mito, 90 min, read-out: POD cm.mito.90min.
The mark [12] stands for this setting: 1.5 h, cardiomyocytes (cm), tc, 90 min, read-out: POD cm.tc.90min.
Where [13] appears, read: 24 h, cardiomyocytes (cm), cam, 24 hrs, read-out: POD cm.cam.24hrs.
The mark [14] stands for this setting: 24 h, cardiomyocytes (cm), mii, 24 hrs, read-out: POD cm.mii.24hrs.
[15] abbreviates: 24 h, cardiomyocytes (cm), mito, 24 hrs, read-out: POD cm.mito.24hrs.
The mark [16] stands for this setting: 24 h, cardiomyocytes (cm), tc, 24 hrs, read-out: POD cm.tc.24hrs.

In the case of `Oc1cc(Cl)c(-c2cc(Cl)ccc2Cl)cc1Cl` [4-OH PCB52], the viability at 0.01 µM under setting [1] was found to be 89.4%, the viability at 0.01 µM under setting [4] was 89.4%, the viability at 0.01 µM under setting [5] was determined as 99.2% and the viability at 0.01 µM under setting [8] turned out to be 99.5%. Besides, the activity at 0.01 µM reads like this: under setting [2], 103%; under setting [3], 87.5%; under setting [6], 98.8%; under setting [7], 99.4%. The viability at 0.1 µM came out at 103% under setting [1], 104% under setting [4], 102% under setting [5] and 103% under setting [8]. In addition, the activity at 0.1 µM is 101% under setting [2], 103% under setting [3], 93.3% under setting [6] and 104% under setting [7]. Besides, the viability at 1 µM is, setting by setting: under setting [1], 97.9%; under setting [4], 98.1%; under setting [5], 96.1%; under setting [8], 96%. Moreover, the activity at 1 µM was 97.3% under setting [2], 97.9% under setting [3], 102% under setting [6] and 94.1% under setting [7]. For the same compound, the viability at 10 µM was 95.1% under setting [1], 94.9% under setting [4], 101% under setting [5] and 101% under setting [8]. For the same compound, the activity at 10 µM reads like this: under setting [2], 116%; under setting [3], 94.7%; under setting [6], 88.3%; under setting [7], 102%. In addition, the viability at 100 µM is 0% under setting [1], 0.0461% under setting [4], 10.2% under setting [5] and 49.7% under setting [8]. Moreover, the activity at 100 µM is 7.54% under setting [2], 0.0231% under setting [3], 193% under setting [6] and 20.3% under setting [7]. For the same compound, the minimal effective concentration by setting is: (1.5 h, 90min, read-out: cm.cam.90min POD) 8.86 µM; (1.5 h, 90min, read-out: cm.mii.90min POD) 45.7 µM; (1.5 h, 90min, read-out: cm.mito.90min POD) 8.61 µM; (1.5 h, 90min, read-out: cm.tc.90min POD) 8.75 µM; (24 h, read-out: cm.cam.24hrs POD) 32.7 µM; (24 h, read-out: cm.mii.24hrs POD) 65.1 µM. In addition, the minimal effective concentration reads like this: (24 h, read-out: cm.mito.24hrs POD) 36.7 µM; (24 h, read-out: cm.tc.24hrs POD) 41.4 µM.
Turning to `Oc1ccc(-c2cccc(Cl)c2)cc1Cl` [4-OH-PCB 11], the minimal effective concentration came out at 27.7 µM under setting [9]; 32.7 µM under setting [10]; 40.1 µM under setting [11]; 36.2 µM under setting [12]; 8.57 µM under setting [13]; 43.2 µM under setting [14]. Further, the minimal effective concentration is 7.94 µM under setting [15] and 8.62 µM under setting [16].
`Oc1cc(Cl)c(-c2cc(Cl)ccc2Cl)cc1Cl` [4-OH-PCB 52]: the minimal effective concentration under setting [9] is 8.86 µM; the minimal effective concentration under setting [10] came to 45.7 µM; the minimal effective concentration under setting [11] was 8.61 µM; the minimal effective concentration under setting [12] was found to be 8.75 µM; the minimal effective concentration under setting [13] turned out to be 32.7 µM; the minimal effective concentration under setting [14] was 65.1 µM. Moreover, the minimal effective concentration by setting is: under setting [15], 36.7 µM; under setting [16], 41.4 µM.
